This experiment deals with CEM cells HIV-1 protection, formazan growth assay. Nature of the experiment: NCI AIDS Antiviral Assay. The conditions noted are these: for IC50: measured here: growth of uninfected CEM cells. The procedure, abridged: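 Five concentrations of each compound were applied to infected and uninfected human CEM cells. Protection from HIV-1 was judged from growth measured with a soluble formazan assay.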

The source made the active and inactive calls.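 How the source made its calls: active means compounds giving half or more protection of infected cells from virus-caused growth loss, again on retest; inactive means the rest.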

Data on 52 molecules can be found in PubChem BioAssay AID179 (DTP/NCI, 2004).

What is called EC50 is the concentration giving half of the maximal effect. In general, IC50 refers to the midpoint of a concentration-inhibition curve. Lower therefore signals greater potency in that assay. In the case of `O=C1/C(=N\N(C(=O)c2ccccc2)c2ccccc2)c2cccc3cccc1c23`, the EC50 is over 3.8 µM and the IC50 was over 3.8 µM.
Regarding `COC(=O)C1(Cc2ccccc2)Cc2cc3c(cc2C1=O)CCC3` (stereo not given), the EC50 is over 200 µM and the IC50 was found to be 85.1 µM.
With `CC(C)=CCC1=C(O)c2ccccc2C(=O)C1=O`, the result was inactive.
As to `CC(C)(C)NC(=S)N/N=C/c1ccccn1`, the EC50 was over 0.2 µM and the IC50 turned out to be 0.0288 µM.
With `COC(=O)C(C)NC1=C(Cl)C(=O)C(NC(C)C(=O)OC)=C(Cl)C1=O` (stereo not given), the outcome was inactive.
Regarding `COc1cccc2c1cc([N+](=O)[O-])c1c(C(=O)O)cc3c(c12)OCO3`, the EC50 is over 200 µM and the IC50 is 19.1 µM.
For `CCC1SC(C)C(=O)NC1=O` (stereo not given), the EC50 was over 661 µM and the IC50 is over 661 µM.
On to `CN(C)C(=S)/N=C(\N)N(C)C`, for which the result was inactive.
For `CC1(C)CNC[C@](C)(OCCCO[C@@]2(C)CNCC(C)(C)NC2=O)C(=O)N1`, the EC50 is over 200 µM and the IC50 is over 200 µM.
Consider `CC[C@]12C=CCN3CCC4(c5cc([C@]6(C(=O)OC)C[C@H]7CN(CCc8c6[nH]c6ccccc86)C[C@@H]6CCCC[C@H]76)c(OC)cc5N(C)C4[C@@](O)(C(=O)OC)C1OC(C)=O)[C@@H]32` (stereo not given in full), for which the EC50 was over 240 µM and the IC50 came out at 1.32 µM.
In the case of `COC(=O)c1ccccc1NC(=O)C(=O)CC(=O)c1ccccc1NC1=CC(=O)C(=O)c2ccccc21`, the EC50 is over 27.5 µM and the IC50 was found to be 4.68 µM.
The matching figures for `CC(C)[C@H](NC(=O)OCc1ccccc1)C(=O)N[C@H](/C=C/C(=O)OC(C)(C)C)CO`: over 200 µM and 97.7 µM.
With `CC1C[C@@H]2C(=O)NC(=O)[C@@H]2c2c1c1ccccc1n2C` (stereo not given in full), the EC50 is over 331 µM and the IC50 is 214 µM.
With `OC1CCC[C@@H]1Sc1ccccc1` (stereo not given in full), the result was inactive.
On to `Oc1cc(OCCCc2ccc(F)cc2)cc2ccc3ccccc3c12`, for which the EC50 was over 55 µM and the IC50 turned out to be 31.6 µM.
On to `c1ccc2c(c1)cc1n2CC2CN=NC12` (stereo not given), for which the EC50 is over 182 µM and the IC50 is over 182 µM.
With `CC(=O)OCC1OC(n2cc(F)c(=O)[nH]c2=O)C(NC(=O)N(CCCl)N=O)C(OC(C)=O)C1OC(C)=O` (stereo not given), the EC50 was over 457 µM and the 50% inhibitory concentration (IC50) was 66.1 µM.
On to `Clc1ccc(Nc2nnc(CNc3ccc(-c4nnc(Nc5ccc(Cl)cc5)s4)cc3)s2)cc1`, for which the EC50 was over 200 µM and the IC50 was determined as 13.2 µM.
The like results for `CN(C)c1c(-c2ccc(Cl)cc2)cc(-c2ccccc2)[nH]c1=O` were, in that order, over 20.9 µM and over 20.9 µM.
Consider `CC1(C)N=C(C(=O)c2ccccc2)N(O)C1(O)c1ccccc1` (stereo not given), for which the EC50 is over 200 µM and the IC50 is 135 µM.
`COc1ccc(CCNC(=S)/N=C/C2=C(O)CC(C)(C)CC2=O)cc1OC`: the EC50 was over 200 µM and the IC50 is over 200 µM.
With `FC1(F)SC2C3CCC(C3)C2C1(F)F` (stereo not given), the outcome was inactive.
As to `CCCCCCCCC1=C(OC)C(=O)c2c(C)cc(Cl)nc2C1=O`, the outcome was inactive.
Turning to `NNC(=O)N/N=C1\C(=O)N(c2nccs2)C(=O)C(=O)C1c1nc2ccccc2s1` (stereo not given), the EC50 was over 2.45 µM and the IC50 is over 2.45 µM.
Turning to `Clc1ccc2nc3occ(Br)c3cc2c1`, the EC50 is over 13.2 µM and the IC50 is over 13.2 µM.
Regarding `Cc1ccc(S(=O)(=O)N(C)c2ccccc2)cc1`, the EC50 was over 200 µM and the IC50 turned out to be 52.5 µM.
On to `O=P1(N2CCCCC2)OCC2(CO1)COP(=O)(N1CCCCC1)OC2` (stereo not given), for which the EC50 was over 200 µM and the IC50 was over 200 µM.
For `CSC(SC)=C1C(=O)N(c2ccccc2)N=C1C`, the EC50 is over 200 µM and the IC50 was determined as 37.2 µM.
With `Cc1cc(C)n(C(=C(C(Cl)=C(Cl)Cl)[N+](=O)[O-])n2nc(C)cc2C)n1`, the EC50 was over 200 µM and the IC50 was determined as 4.37 µM.
As for `COc1cc(/C=C2\C(=O)N(C(=O)Cc3ccccc3)N=C2C)cc(OC)c1OC`, the EC50 is over 25.1 µM and the IC50 was over 25.1 µM.
With `c1ccc2c(c1)nc1n2C2CCC(C2)N1` (stereo not given), the EC50 was over 200 µM and the IC50 was over 200 µM.
In the case of `CC(=O)Oc1c2c(c(OC(C)=O)c3c1C(=O)c1ccccc1C3=O)CCC([C@H](C)O)=C2`, the result was inactive.
Regarding `Cc1cc(C)nc(Nc2nc3ccc([N+](=O)[O-])cc3[nH]2)n1`, the EC50 is over 871 µM and the IC50 came to 407 µM.
As to `COC(=O)CCN1CCN(CCO)CC1C` (stereo not given), the EC50 was over 200 µM and the IC50 was over 200 µM.
For the molecule `C=Cc1c(C#N)nc(C)c(C)c1-c1ccc(OC)c(OC)c1OCc1ccccc1`, the EC50 was over 200 µM and the IC50 came out at 14.1 µM.
In the case of `N[C@@H](CSS[C@H](C(=O)O)[C@@H](SSC[C@H](N)C(=O)O)C(=O)O)C(=O)O`, the EC50 was over 200 µM and the IC50 came out at 35.5 µM.
For `C=CCC1(C)CCCCC1(O)CS(=O)c1ccccc1` (stereo not given), the outcome was inactive.
Take `Nc1ccc2ccccc2c1N=Nc1ccc(/C=C/c2ccc(N=Nc3c(N)ccc4ccccc34)cc2S(=O)(=O)O)c(S(=O)(=O)O)c1`: the EC50 is 63.1 µM and the IC50 came out at 115 µM.
Turning to `CC1CCCCc2nc3c(c(=O)n21)CCCC3` (stereo not given), the EC50 is over 562 µM and the IC50 stood at 347 µM.
`Cc1cc(O)c(C=O)c2c1C(=O)Oc1c(COCO/C=C/C(=O)O)c(O)c(C(=O)O)c(C)c1O2` came in with an EC50 of 52.5 µM and an IC50 of 61.7 µM.
`Cc1ccc(S(=O)(=O)N=C2C=C(C(C)(C)C)C(=O)C(C(C)(C)C)=C2)cc1`: the EC50 was over 36.3 µM and the IC50 was over 36.3 µM.
As for `NC(Cc1ccc(OCc2ccccc2)cn1)C(=O)O` (stereo not given), the EC50 is over 200 µM and the IC50 was over 200 µM.
On to `COc1c(Cl)cc(C(=CCCNC(=O)C[C@H]2CC[C@@]3(C)[C@@H](CC[C@@H]4[C@@H]3CC[C@]3(C)[C@@H](CC(=O)NCCC=C(c5cc(Cl)c(OC)c(C(=O)O)c5)c5cc(Cl)c(OC)c(C(=O)O)c5)CC[C@@H]43)C2)c2cc(Cl)c(OC)c(C(=O)O)c2)cc1C(=O)O`, for which the EC50 was over 200 µM and the IC50 was found to be 148 µM.
On to `O=S1(=O)c2ccccc2NC(=S)CC1c1ccccc1` (stereo not given), for which the EC50 is over 200 µM and the IC50 was determined as 129 µM.
As to `O=C1/C(=C/c2ccc(O)c([N+](=O)[O-])c2)CCC/C1=C\c1ccc(O)c([N+](=O)[O-])c1`, the EC50 is over 200 µM and the half-inhibitory concentration (IC50) was 11.7 µM.
In the case of `Cc1c2cccc1CSCc1cccc(c1C)CSC2`, the EC50 is over 123 µM and the IC50 was over 123 µM.
As to `O=C1c2cc([N+](=O)[O-])ccc2NC1(c1c[nH]c2ccccc12)c1c[nH]c2ccc(Br)cc12` (stereo not given), the EC50 is over 200 µM and the IC50 is 26.3 µM.
Regarding `COC(=O)N1C=NC2C3(C)C(C)=C(C)C3(C)C21C` (stereo not given), the EC50 was over 263 µM and the half-maximal inhibitory concentration (IC50) is 151 µM.
The like results for `COc1cccc(SSc2cccc(OC)c2OC)c1OC` were, in that order, over 200 µM and 16.6 µM.
For the molecule `CC(C)(C)CC(C)(C)c1ccc(OCCO)cc1`, the result was inactive.
Regarding `CCN(CC)CCC(=O)NC1c2ccc(Cl)cc2Oc2c(C)cccc21` (stereo not given), the EC50 was over 200 µM and the IC50 amounted to 9.55 µM.
The like results for `CS(=N)(=O)CCC(N)P(=O)(O)O` (stereo not given) were, in that order, over 200 µM and over 200 µM.
